The values that follow come from US9241976B2, “Use of HDL-related molecules to treat and prevent proinflammatory conditions” (THE REGENTS OF THE UNIVERSITY OF CALIFORNIA, priority 2011, dated 2016).

The conditions of test [1]: reference (17); cited from earlier work.
Test [2] deals with CT26 cells. Briefly: Cell-cycle analysis of CT26 cells by flow cytometry. Type of test: cell-based, mouse. Also noted: dose or concentration left out as unconfirmed. The settings on record: 48 hours. The method, then:
CT26 cells were cultured in 6-well plates overnight and then serum starved for 48 hours. […] Cells were collected, washed with PBS, and fixed with 70% ice-cold methanol overnight at 4° C. The fixed cells were collected by centrifugation, washed with PBS, and resuspended in 0.3 mL of PBS containing […] RNaseA and […] propidium iodide, and subjected to flow cytometric cell-cycle analysis by FACScan from BD Biosciences.
For orientation: A flow cytometer gives signals particle by particle.

In a further test the test system is cyclin D1 and cyclin A. Kind of test: Western blot of cyclin D1 and cyclin A in CT26 cells. Type of test: cell-based, mouse. The method, then: Total cell proteins were collected after treatment in cell lysis buffer containing 0.1 mol/L NaCl, 5 mmol/L EDTA, 50 mmol/L sodium orthovanadate, 1% Triton X-100, and protease inhibitor tablet in 50 mmol/L Tris buffer (pH 7.5). Twenty micrograms of total proteins were separated by SDS-PAGE and transferred onto nitrocellulose membrane and followed by incubation with primary antibody at 4° C. in 5% skim milk and 0.1% Tween-20. Anti-cyclin D1 and anti-cyclin A rabbit polyclonal antibodies were used at 1:1,000 dilution, and anti-b-actin polyclonal antibody was used at 1:2,000 dilution.
(In western blotting, separated proteins are transferred to a membrane and probed.)

The test system of the next test is LPA. Briefly: LPA levels in CT26 cell culture medium. The conditions noted are these: CT26 cells; 48 hours; vs control medium. Type of test: cell-based, mouse. The method, then:
FIGS. 17A-17B. HDL mimetic, L-4F inhibits LPA induced viability of CT26 cells and reduces LPA levels in cell culture medium. FIG. 17A, CT26 cells were cultured as described in Example 5 and incubated with either L-4F at 10 mg/mL or LPA at a concentration 5, 10, […], or cells were treated with both L-4F and LPA for 48 hours. All experiments were conducted in triplicate and each assay was carried out in quadruplicates. Data are represented as the mean±SD of the percent of control cells. FIG. 17B, LPA levels were measured in the cell culture medium after 48 hours of treatment.
LPA (20:4) was purchased from Avanti Polar Lipids. LPA levels were determined as described previously (19).
LPA has been identified as an important mediator of tumor development, progression, and metastases in humans (26, 27). We have previously shown that apoAI mimetic peptides inhibit LPA-induced viability of ID8 cells and reduce serum LPA levels in mice injected with ID8 cells (17). […] LPA 20:4 and 18:1 were not detectable in cell culture medium (FIG. 17B).

Another test concerns HIF-1α mRNA. Briefly: HIF-1α mRNA, real-time RT-PCR. Type of test: cell-based, human. The method, then: Total RNA was extracted from cells by using a PureLink RNA Mini Kit (Invitrogen). The quantity and quality of RNA were assessed by using a SmartSpec 3000 Spectrophotometer (Bio-Rad Laboratories, Hercules, Calif.). cDNA was synthesized by using the High Capacity cDNA Reverse Transcription Kit (Applied Biosystems, Foster City, Calif.) according to the manufacturer's instructions. PCRs were performed by using the CFX96 realtime PCR system (Applied Biosystems). The cycling conditions were as follows: 3 min at 95° C. followed by 40 cycles of 95° C., 10 s; 60° C., 10 s; 72° C., 30 s followed by a final extension at 72° C. for 10 min. Each 25-μl reaction contained 0.4 μg of cDNA, 12.5 μl of SYBR Green qPCR SuperMix (Bio-Rad Laboratories), and 250 nM forward and reverse primers in nuclease-free water. […]
In general terms: In qPCR the cycle at which signal appears reflects the starting amount.

Another test relates to ID8 cells. The conditions noted are these: cited from earlier work.
The test system of another test is ROS. Briefly: Cellular reactive oxygen species, dichlorofluorescein oxidation assay in OV2008 cells. Type of test: cell-based, human. The conditions noted are these: 10 μg/ml pretreatment 1 h. The method, then: As described previously (Zhou et al., 2007; Lee et al., 2009), OV2008 cells were plated onto a glass slip (Thermo Fisher Scientific) in a 24-well plate at 4×10^4 cells per well, cultured overnight in normal cultured condition, starved in serum-free media overnight, and treated with L-4F (10 μg/ml) for 1 h. Then, dichlorofluorescein diacetate (DCFHDA, 10 μM) and insulin (200 nM)/CoCl2 (100 μM) were added and incubated with the cells for an additional 0.5 h. The cells were washed twice with phosphate-buffered saline (PBS). The images were captured with a fluorescence microscope (Olympus IX70; Olympus, Tokyo, Japan).

Test [3] relates to CT26 cells. Kind of test: Tumor-load study: CT26 flank tumors in BALB/c mice. Type of test: in vivo, mouse. The method, then: 6-week-old BALB/c female mice were given a 100 μL subcutaneous injection of 1×10^6 CT26 cells prepared as a single cell suspension in PBS, and the mice were treated with bHDLor BHDLat 10 mg/kg administered subcutaneously (SQ) daily for 15 days. The mice were sacrificed and tumor weights were measured.
6-week-old BALB/c female mice were given a 100 μl subcutaneous injection of 1×10^6 CT26 cells prepared as a single cell suspension in PBS, treated with peptide at 10 mg/kg by SQ daily for 15 days.
The mice were killed and tumor weights were measured. The tumor volumes were measured using the formula V=½ (L×W^2).
Six-week-old BALB/c female mice were given a […] subcutaneous injection of 1×10^6 CT26 cells prepared as a single cell suspension in PBS, and the mice were treated with sc-4F or L-4F at 10 mg/kg administered subcutaneously daily for 15 days. The mice were sacrificed and tumor weights were measured.

The mark [4] stands for this setting: Example 3, 10 mg/kg subcutaneous daily for 15 days.

For “Ac-DWFKAFYDKVAEKFKEAF-NH2 [L-4F, Ac-D-W-F-K-A-F-Y-D-K-V-A-E-K-F-K-E-A-F-NH2]”, the “binding of LPA” value in test [1] was “binds”. In addition, the cell-cycle profile entry with CT26 cells [2] is “induced an increase in G0/G1 phase and arrest in S phase”. Besides, the “expression of cyclin D1 and cyclin A” value in the test on cyclin D1 and cyclin A is recorded as “significantly lower”. Moreover, the “LPA 16:0 and 18:0 levels in cell culture medium” value with LPA is “significantly decreased”. The “basal level of HIF-1α mRNA” value in the test with HIF-1α mRNA is “no effect”. Moreover, the “ID-8 cell-mediated tumor burden” value in the test with ID8 cells (C57BL/6J mice, administered subcutaneously or orally, reference (17)) is “decreased”. Besides, in the test with ID8 cells (immunocompetent mouse model of ovarian cancer, ID8 (Gao et al., 2011)), the “tumor growth and angiogenesis” value was “inhibited”. Moreover, the “cellular ROS production induced by insulin and CoCl2” value in the test on ROS is “dramatically prevented”. In the test on CT26 cells [3] (setting [4]), this substance yielded a flank tumor volume of 313 mm^3 and a flank tumor weight of 179 mg. In the test on CT26 cells [3] (Example 5, 10 mg/kg subcutaneously daily for 15 days), this substance registered a flank tumor weights of 389 mg.
